Assay results as given in EP0967196B1, “Substituted 2-hydroxybenzophenones, preparation thereof, their use as fungicide and their fungicidal compositions” (BASF AKTIENGESELLSCHAFT, priority 1998, dated 1999).

What was measured:
[1] = system: Blumeria (Erysiphe) graminis DC. f.sp. tritici E. Marchal; experiment: Wheat Powdery Mildew (WPM) curative fungicidal activity, inoculation 3 days before spray application on wheat plants; assay type: in vivo; parameters: key to WPM 3 day curative Antisporulation effect: +++ = complete (no spore release); ++ = moderate; + = slight; o = none; conditions: for Emax at 0.2 ppm / Emax at 1 ppm / Emax at 5 ppm / Emax at 25 ppm / Emax at 125 ppm: Blumeria, 72 h, WPM 3 da C (3 day curative), wheat variety Kanzler, read-out: Disease control (% efficacy); for Emax at 0.2 ppm: rate 0.2 ppm; for Emax at 125 ppm: rate 125 ppm; for WPM 3 day curative % disease control / WPM 3 day curative Antisporulation effect: Comparison test (Table IV), 200 l/ha
Excerpt: (§1) • Wheat Powdery Mildew (WPM): • HOST: Wheat (Triticum aestivum L.) variety Kanzler • PATHOGEN: Blumeria (Erysiphe) graminis DC. f.sp. tritici E. Marchal
(§2) • 1. Wheat seed (approximately 8-10/pot) is planted in 6 cm diameter plastic pots and maintained in the greenhouse. • 2. When the primary leaf (wheat) is fully expanded, formulated test compounds are sprayed with a single nozzle overhead track sprayer at a rate of 200 l/ha. Plants are then allowed to air-dry. • 3. Inoculation precedes treatment by 3 days in the case of curative evaluations and follows treatment by 4 or 5 days in case of residual evaluations. For inoculation, plants are set up on greenhouse benches with bottom watering mats and inoculated by dusting them with conidia from powdery mildew infected plants (stock cultures at an age of 10-14 days). Between inoculation and treatment for curative evaluations and between treatment and inoculation for residual evaluations, plants are maintained in the greenhouse with bottom watering. • 4. Disease on the primary leaf as percent leaf area with disease symptoms/signs is evaluated about 7 days after inoculation. In the case of wheat, the tips and bases of the leaves are excluded from the evaluation.
(§3) Percent disease control is then calculated by the following formula: % disease control = 100 -(% infection in treated plants)/(% infection in untreated plants)x 100 [formula]
(§4) • 1. Technical compounds are formulated in a solvent/surfactant system consisting of 5% acetone and 0.05% Tween 20 in deionized water. Compounds are dissolved in acetone prior to addition of the water; the Tween 20 can be added through either the acetone or the water. Dilutions are made using the solvent/surfactant system. Formulated compounds are prepared using deionized water. • 2. Two kinds of controls are included: • Plants treated with the solvent/surfactant solution and inoculated (Solvent Blank). • Untreated plants which are inoculated (Inoculated Control).
(§5) The fungicidal activity against wheat powdery mildew of the hydroxybenzophenones according to this invention has been compared with a fungicidal benzophenone known from EP 0 727 141 in the following table. Compounds applied to seedling wheat plants using a single-nozzle overhead track sprayer at an application rate of 200 l/ha.

[2] = system: Blumeria (Erysiphe) graminis DC. f.sp. tritici E. Marchal; experiment: Wheat Powdery Mildew (WPM) residual fungicidal activity, inoculation 4 or 5 days after spray application on wheat plants; assay type: in vivo; conditions: for Emax at 0.2 ppm / Emax at 1 ppm / Emax at 5 ppm / Emax at 25 ppm / Emax at 125 ppm: Blumeria, WPM 4/5 da R (4/5 day residual), wheat variety Kanzler, read-out: Disease control (% efficacy); for Emax at 0.2 ppm: rate 0.2 ppm; for Emax at 125 ppm: rate 125 ppm; for WPM 4 day residual % disease control: Comparison test (Table IV), 200 l/ha
Excerpt: as §1, §2, §3, §4
4/5 da R = 4/5 day residual Inoculation 4 or 5 days AFTER application
as §5

`COc1cc(C)c(C(=O)c2c(OC(C)=O)ccc(Br)c2C)c(OC)c1OC` [Example 1, 2-acetoxy-5-bromo-6,6'-dimethyl-2',3',4'-trimethoxybenzophenone] gave an Emax at 0.2 ppm [1] of 2%, an Emax at 1 ppm ([1]; rate 1 ppm) of 17% and an Emax at 5 ppm ([1]; rate 5 ppm) of 33%. It also gave an Emax at 25 ppm ([1]; rate 25 ppm) of 49%, an Emax at 125 ppm [1] of 55% and an Emax at 0.2 ppm [2] of 53%. For the same compound, the Emax at 1 ppm ([2]; rate 1 ppm) was 84%, the Emax at 5 ppm ([2]; rate 5 ppm) was 98% and the Emax at 25 ppm ([2]; rate 25 ppm) was 100%. The Emax at 125 ppm [2] was 100%.
`COc1cc(C)c(C(=O)c2c(O)ccc(Br)c2C)c(OC)c1OC` [Example 2, 5-bromo-6,6'-dimethyl-2-hydroxy-2',3',4'-trimethoxybenzophenone] was tested, and the Emax at 0.2 ppm [1] was 13%, the Emax at 1 ppm ([1]; rate 1 ppm) was 23% and the Emax at 5 ppm ([1]; rate 5 ppm) was 37%. The Emax at 25 ppm ([1]; rate 25 ppm) was 53%, the Emax at 125 ppm [1] was 59% and the “WPM 3 day curative % disease control” value ([1]; rate 1 ppm) was 10%. The “WPM 3 day curative Antisporulation effect” value ([1]; rate 1 ppm) was “+”, the “WPM 3 day curative % disease control” value ([1]; rate 5 ppm) was 22% and the “WPM 3 day curative Antisporulation effect” value ([1]; rate 5 ppm) was “+”. The “WPM 3 day curative % disease control” value ([1]; rate 25 ppm) was 40%, the “WPM 3 day curative Antisporulation effect” value ([1]; rate 25 ppm) was “+++” and the Emax at 0.2 ppm [2] was 86%. For the same compound, the Emax at 1 ppm ([2]; rate 1 ppm) was 98%, the Emax at 5 ppm ([2]; rate 5 ppm) was 100% and the Emax at 25 ppm ([2]; rate 25 ppm) was 100%. For the same compound, the Emax at 125 ppm [2] was 100%, the “WPM 4 day residual % disease control” value ([2]; rate 1 ppm) was 52% and the “WPM 4 day residual % disease control” value ([2]; rate 5 ppm) was 78%. For the same compound, the “WPM 4 day residual % disease control” value ([2]; rate 25 ppm) was 100%.
`CCCCOc1c(OC)c(OC)cc(C)c1C(=O)c1c(Cl)cccc1Cl` [standard, 2'-n-butyloxy-2,6-dichloro-3',4'-dimethoxy-6'-methylbenzophenone, reference compound] was tested, and the “WPM 3 day curative % disease control” value ([1]; rate 1 ppm) was 0%, the “WPM 3 day curative Antisporulation effect” value ([1]; rate 1 ppm) was 0 and the “WPM 3 day curative % disease control” value ([1]; rate 5 ppm) was 3%. For the same compound, the “WPM 3 day curative Antisporulation effect” value ([1]; rate 5 ppm) was 0, the “WPM 3 day curative % disease control” value ([1]; rate 25 ppm) was 6% and the “WPM 3 day curative Antisporulation effect” value ([1]; rate 25 ppm) was “+”. The “WPM 4 day residual % disease control” value ([2]; rate 1 ppm) was 15%, the “WPM 4 day residual % disease control” value ([2]; rate 5 ppm) was 47% and the “WPM 4 day residual % disease control” value ([2]; rate 25 ppm) was 92%.
